# Laboratory results as given in patent US10570431B2, “Compositions comprising a polypeptide having cellulolytic enhancing activity and a heterocyclic compound and uses thereof” (priority 2013, dated 2020).
# Where two headings read alike, the source gives them in different places.
# B1: Trichoderma reesei GH61B polypeptide: GH61B polypeptide having cellulolytic enhancing activity (SEQ ID NO: 16), recombinantly prepared using Aspergillus oryzae JaL250 as a host (protein, listed as Trichoderma reesei)
# chain: MKSCAILAALGCLAGSVLGHGQVQNFTINGQYNQGFILDYYYQKQNTGHFPNVAGWYAEDLDLGFISPDQYTTPDIVCHKNAAPGAISATAAAGSNIVFQWGPGVWPHPYGPIVTYVVECSGSCTTVNKNNLRWVKIQEAGINYNTQVWAQQDLINQGNKWTVKIPSSLRPGNYVFRHELLAAHGASSANGMQNYPQCVNIAVTGSGTKALPAGTPATQLYKPTDPGILFNPYTTITSYTIPGPALWQG
# B2: Penicillium pinophilum GH61A polypeptide: GH61A polypeptide having cellulolytic enhancing activity (SEQ ID NO: 32), recombinantly prepared using Aspergillus oryzae HowB101 as a host (protein, listed as Penicillium pinophilum)
# chain: MPSTKVAALSAVLALASTVAGHGFVQNIVIDGKSYSGYLVNQFPYESNPPAVIGWATTATDLGFVAPSEYTNADIICHKNATPGALSAPVAAGGTVELQWTTWPDSHHGPVISYLANCNGNCSTVDKTKLDFVKIDQGGLIDDTTPPGTWASDKLIAANNSWTVTIPSTIAPGNYVLRHEIIALHSAGNADGAQNYPQCINLEITGSGTAAPSGTAGEKLYTSTDPGILVNIYQSLSTYVIPGPTLWSGAANGAVATGSATAVATTATASATATPTTLVTSVAPASSTFATAVVTTVAPAVTDVVTVTDVVTVTTVITTTVL
# B3: Aspergillus fumigatus GH61B polypeptide: GH61 polypeptide having cellulolytic enhancing activity (SEQ ID NO: 30), recombinantly prepared using Aspergillus oryzae JaL355 as a host (protein, listed as Aspergillus fumigatus)
# chain: MTLSKITSIAGLLASASLVAGHGFVSGIVADGKYYGGYLVNQYPYMSNPPDTIAWSTTATDLGFVDGTGYQSPDIICHRDAKNGKLTATVAAGSQIEFQWTTWPESHHGPLITYLAPCNGDCATVDKTTLKFVKIAAQGLIDGSNPPGVWADDEMIANNNTATVTIPASYAPGNYVLRHEIIALHSAGNLNGAQNYPQCFNIQITGGGSAQGSGTAGTSLYKNTDPGIKFDIYSDLSGGYPIPGPALFNA
# B4: Talaromyces stipitatus GH61A polypeptide: GH61A polypeptide having cellulolytic enhancing activity (SEQ ID NO: 164), recombinantly prepared as described in Example 3 (protein, listed as Talaromyces stipitatus)
# chain: MPSTKVAALSAVLALASTVAGHGFVQNIVIDGKSYTGYLVNQYPYQSNPPAVIGWSTTATDLGFVDGSGYTNPDIICHKNAKPGQLSAPVAAGGKVELEWTTWPESHHGPVISYLANCNGDCTTVDKTKLEFVKIDQRGLIDDSNPPGTWAADQLIAANNSWTVTIPESIAPGNYVLRHEIIALHSANNATGAQNYPQCINLQITGSGTANPSGTPGEKLYTPTDPGILVNIYQSLSSYVIPGPTLWSGAAAHVVATAAGSATGVASATATPTTLVTAVSSPTGAPSVVTPEAPSVTSFAPVVTVTDVVTVTTVITTTIS
# B5: Thielavia terrestris GH61E polypeptide: GH61E polypeptide having cellulolytic enhancing activity (SEQ ID NO: 8), recombinantly prepared using Trichoderma reesei RutC30 as a host (protein, listed as Thielavia terrestris)
# chain: MLANGAIVFLAAALGVSGHYTWPRVNDGADWQQVRKADNWQDNGYVGDVTSPQIRCFQATPSPAPSVLNTTAGSTVTYWANPDVYHPGPVQFYMARVPDGEDINSWNGDGAVWFKVYEDHPTFGAQLTWPSTGKSSFAVPIPPCIKSGYYLLRAEQIGLHVAQSVGGAQFYISCAQLSVTGGGSTEPPNKVAFPGAYSATDPGILINIYYPVPTSYQNPGPAVFSC
# What was measured:
# Format in all cases: biochemical
# [1] = tested on: Trichoderma reesei cellulase composition; experiment: Hydrolysis of AVICEL (microcrystalline cellulose) by the T. reesei cellulase composition, with/without GH61 polypeptide or heterocyclic compound; conditions: for heterocyclic compound effect(no GH61) / heterocyclic compound effect(no GH61) (ratio of percent conversion with compound to without): AVICEL; for Percent conversion of AVICEL: GH61 present, no heterocyclic compound, one experiment
# [2] = tested on: Trichoderma reesei cellulase composition; conditions: milled washed PCS, no GH61
# [3] = tested on: Trichoderma reesei cellulase composition; conditions: milled unwashed PCS, compound 5 mM, no GH61
# [4] = compound 10 mM, cellulase 2 mg per g cellulose, especially at day 3
# [5] = 1 day, 13.7±0.6% in the absence of GH61
# [6] = 3 days, 28.6±0.4% in the absence of GH61
# [7] = 7 days, 44±1% in the absence of GH61
molecule,measurement,setting,value
O=Cc1ccc(CO)o1 [5-(hydroxymethyl)furfural],heterocyclic compound effect(no GH61),"[1]; compound 1 mM, 1, 3 and 7 days",greater than 1
O=c1cc(O)c2ccccc2o1 [4-hydroxycoumarin],heterocyclic compound effect(no GH61),"[1]; compound 1 mM, 1, 3 and 7 days",very slightly decreased
O=C(CO)c1ccccc1 [2-hydroxyacetophenone],heterocyclic compound effect(no GH61),"[2]; compound 5 mM, 1, 3 and 7 days",slightly decreased
same,heterocyclic compound effect(no GH61) (ratio of percent conversion with compound to without),"[1]; compound 5 mM, 1, 3 and 7 days",less than 1
same,heterocyclic compound effect(no GH61),"[1]; compound 10 mM, 1 and 3 days",significantly decreased the day 3 hydrolysis
same,heterocyclic compound effect(no GH61),"[3]; cellulase 2 mg per g cellulose, 1, 3 and 7 days",greater than 1
O=C1O[C@H](CO)[C@@H](O)[C@H]1O [ribonic γ-lactone],heterocyclic compound effect(no GH61) (ratio of percent conversion with compound to without),"[1]; compound 5 mM, 1, 3 and 7 days",less than 1
C=C(C)CO [2-methyl-2-propen-1-ol],heterocyclic compound effect(no GH61) (ratio of percent conversion with compound to without),"[1]; compound 5 mM, 1, 3 and 7 days",decreased later stages of hydrolysis
CC1=C(O)C(=O)CO1 [4-hydroxy-5-methyl-3-furanone],heterocyclic compound effect(no GH61),[2]; [4],< 1
O=C1O[C@H](CO)[C@H](O)[C@H]1O [D-xylonic γ-lactone],heterocyclic compound effect(no GH61),"[1]; compound 5 mM, day 1 or 7",~1
"O=C1OC(C(O)CO)C(=O)C1=O (stereo not drawn) [dehydroascorbic acid, [1,2-dihydroxyethyl]furan-2,3,4(5H)-trione]",heterocyclic compound effect(no GH61),"[2]; compound 5 mM, 1, 3 and 7 days",very slightly decreased
same,heterocyclic compound effect(no GH61),[2]; [4],< 1
same,heterocyclic compound effect(no GH61) (ratio of percent conversion with compound to without),"[1]; compound 5 mM, 1, 3 and 7 days",very slightly decreased
same,heterocyclic compound effect(no GH61),"[1]; compound 10 mM, 1 and 3 days",very slightly decreased the day 3 hydrolysis
same,heterocyclic compound effect(no GH61),[3]; mid to late stages of hydrolysis,greater than 1
"OC[C@H]1OC=C[C@@H](O)[C@@H]1O [D-glucal, 1,5-anhydro-2-deoxy-D-arabino-hex-1-enitol]",heterocyclic compound effect(no GH61) (ratio of percent conversion with compound to without),"[1]; compound 5 mM, 1, 3 and 7 days",less than 1
Cc1cc(O)no1 [3-hydroxy-5-methylisoxazole],heterocyclic compound effect(no GH61) (ratio of percent conversion with compound to without),"[1]; compound 5 mM, 1, 3 and 7 days",~1
"O=CC(=O)C[C@H](O)[C@H](O)CO [3-deoxyglucosone, 3-deoxy-D-erythro-hexosulose]",heterocyclic compound effect(no GH61) (ratio of percent conversion with compound to without),"[1]; compound 5 mM, 1, 3 and 7 days",~1
B1,Percent conversion of AVICEL,[1]; [5],13.5±0.4%
same,Percent conversion of AVICEL,[1]; [6],29±2%
same,Percent conversion of AVICEL,[1]; [7],44±2%
B2,Percent conversion of AVICEL,[1]; [5],14.1±0.4%
same,Percent conversion of AVICEL,[1]; [6],28.5±0.5%
same,Percent conversion of AVICEL,[1]; [7],46±2%
B3,Percent conversion of AVICEL,[1]; [5],13.6±0.2%
same,Percent conversion of AVICEL,[1]; [6],29±1%
same,Percent conversion of AVICEL,[1]; [7],46±2%
B4,Percent conversion of AVICEL,[1]; [5],13.6±0.4%
same,Percent conversion of AVICEL,[1]; [6],27.9±0.2%
same,Percent conversion of AVICEL,[1]; [7],44.7±0.5%
B5,Percent conversion of AVICEL,"[1]; 1 day, 19.5±0.2% in the absence of GH61",20.5±0.5%
same,Percent conversion of AVICEL,"[1]; 3 days, 27±1% in the absence of GH61",27±1%
same,Percent conversion of AVICEL,"[1]; 7 days, 43±1% in the absence of GH61",43.0±0.3%
